In patent EP0551434B1 (BOARD OF REGENTS THE UNIVERSITY OF TEXAS SYSTEM, priority 1990, dated 1992):
Like-named read-outs stand apart in the source and are kept apart here. Blank lines part the entries; values can stand above or below the molecule they belong to.

What was measured:
MCF7 = experiment: Inhibition of MCF7 breast tumor cell growth in vitro (72 hour exposure, MTT tetrazolium dye assay); type: cell-based, human
Description: The MCF7 cell line is a human tumor cell line. This cell line was cultured in MEM( (Eagles) media in a 5% C0^2 atmosphere with 10% fetal calf serum that had been washed twice with dextran coated charcoal to reduce endogenous estrogen levels. The media was supplemented with 1 mM sodium pyruvate and 100 µm non-essential amino acids. The cell line was screened routinely for myoplasma contamination using the GenProbe kit (Fisher). Cells were trypsinized and plated at a density of 5,000 cells/well in 96 well microtiter plates and allowed to attach and recover for 24 hours.
The media was removed by aspiration and replaced with filter sterilized drug (concentration from 10-^4 M to […]) in media. The cells were incubated for 72 hours and then stained using the MTT tetrazolium dye assay of Mosmann^36 except that after the media was removed, the blue formazan product was solubilized in 50 µl/well DMSO.

estrogen receptor [1] = target: T1, estrogen receptor (Sus scrofa, UniProt Q29040)
T1 sequence (Q29040 1-595): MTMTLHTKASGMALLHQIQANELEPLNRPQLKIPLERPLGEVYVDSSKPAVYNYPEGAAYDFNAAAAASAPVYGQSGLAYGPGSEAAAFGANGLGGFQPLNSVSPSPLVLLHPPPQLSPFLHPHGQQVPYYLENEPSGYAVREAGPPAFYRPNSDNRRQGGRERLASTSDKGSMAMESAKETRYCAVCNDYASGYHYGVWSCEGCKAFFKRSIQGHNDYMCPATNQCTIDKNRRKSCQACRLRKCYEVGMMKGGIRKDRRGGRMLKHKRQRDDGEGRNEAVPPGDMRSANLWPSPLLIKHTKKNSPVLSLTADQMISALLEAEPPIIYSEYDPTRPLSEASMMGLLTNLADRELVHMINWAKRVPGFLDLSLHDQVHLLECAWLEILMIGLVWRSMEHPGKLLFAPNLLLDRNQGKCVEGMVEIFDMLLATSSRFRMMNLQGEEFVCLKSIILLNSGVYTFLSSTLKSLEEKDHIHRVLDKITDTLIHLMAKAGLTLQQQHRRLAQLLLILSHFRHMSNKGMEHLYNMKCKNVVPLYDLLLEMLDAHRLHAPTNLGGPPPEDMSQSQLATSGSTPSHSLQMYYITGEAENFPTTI

estrogen receptor [2] = target: T1, estrogen receptor; experiment: biochemical
[3] = Uterus to muscle ratio (tissue uptake, method not described); settings: in vivo
[4] = In vivo biodistribution of N,N-diethyl-[^18F]fluoromethyltamoxifen in rats; settings: rat, iv; for tissue uptake at 2 h / tissue uptake at 4 h: primed with 60 μg of estradiol for 3 days
Description: Four groups of rats (150-200 gm, N = 4/group) were anesthetized with ketamine (10-15 mg/rat). […]. Tissue uptake of ^18F-tracer was determined at 2 and 4 hours (h). To ascertain whether the ^18 F-tracer uptake was mediated by a receptor-process, one group of rats was given ^18F-tracer without priming with estradiol; and another group of rats was given unlabeled estradiol (30 µg/rat) together with ^18 F-tracer. […]

[5] = Table 6, relative potency, IC50 ratio between tamoxifen and competitor, tamoxifen = 100
[6] = IC50(M), [^3H]estradiol 5 nM, 4°C
[7] = IC50(uM), concentration required to decrease bound [^3H]estradiol by 50%, average of three experiments
[8] = IC-50 estrogen receptor binding, [^3H]estradiol (5 nM)
[9] = Homo sapiens, MCF7, 72 h, Table 6, 72 hour exposure, average of three experiments, read-out: IC50 Dose
[10] = 2h(BLOCK): coinjected with estradiol (30μg)
[11] = 2h, without prime with estradiol (control)
[12] = Homo sapiens, MCF7, text values b172, read-out: IC50 MCF7 cell inhibition (converted)

Molecule: CCN(CC)CCOc1ccc(C(=C(CCF)c2ccccc2)c2ccccc2)cc1 (single isomer, unassigned) [Compound IV (Cis), N,N-diethyl-fluorotamoxifen]
- RP (MCF7): 268

- RBA (estrogen receptor [1]): 75
- IC50 (MCF7; Table 6, 72 hour exposure, average of three experiments, read-out: IC50 Dose): 10 µM
Molecule: CCN(CC)CCOc1ccc(/C(=C(/CCCCl)c2ccccc2)c2ccccc2)cc1 [Compound XII (trans), 1[4-(2-Diethylaminoethoxy)phenyl]-1,2-diphenyl-5-chloro-1-pentene]
- RP (MCF7; [5]): 146

Molecule: CCN(CC)CCOc1ccc(/C(=C(/CCCO)c2ccccc2)c2ccccc2)cc1 [III (trans), N,N-diethyl-hydroxymethyltamoxifen]
- Ki (estrogen receptor [2]): 3.5 µM
- IC50 (estrogen receptor [2]; [6]): 7e-06 M
- IC50 (estrogen receptor [2]; [7]): 7e-06 M
- IC50 (estrogen receptor [2]; [8]): 7e-06 M
- RBA (estrogen receptor [1]): 4
- RBA* (estrogen receptor [1]): 400
- IC50 (MCF7; [9]): 22 µM
- RP (MCF7; [5]): 50

Molecule: CCN(CC)CCOc1ccc(/C(=C(/CCCI)c2ccccc2)c2ccccc2)cc1 [Compound X]
- IC50 (estrogen receptor [2]; [8]): 2e-06 M
- fold higher affinity for the estrogen receptor than native tamoxifen (estrogen receptor [1]): 10-15 fold
- uterus to muscle ratio [3]: 3.6

- tissue uptake at 2 h ([4]; blood, 2h, read-out: BLOOD): 0.033 ± 0.0059 %ID/g
- tissue uptake at 4 h ([4]; blood, read-out: BLOOD): 0.045 ± 0.0003 %ID/g
- tissue uptake at 2 h ([4]; bone, 2h, read-out: BONE): 0.653 ± 0.135 %ID/g
- tissue uptake at 4 h ([4]; bone, read-out: BONE): 0.802 ± 0.0556 %ID/g
- tissue uptake at 2 h ([4]; intestine, 2h, read-out: INTESTINE): 0.917 ± 0.306 %ID/g
- tissue uptake at 4 h ([4]; intestine, read-out: INTESTINE): 1.1 ± 0.599 %ID/g
- tissue uptake at 2 h ([4]; kidney, 2h, read-out: KIDNEY): 0.742 ± 0.0756 %ID/g
- tissue uptake at 4 h ([4]; kidney, read-out: KIDNEY): 0.796 ± 0.03 %ID/g
- tissue uptake at 2 h ([4]; liver, 2h, read-out: LIVER): 4.54 ± 0.505 %ID/g
- tissue uptake at 4 h ([4]; liver, read-out: LIVER): 4.21 ± 0.44 %ID/g
- tissue uptake at 2 h ([4]; muscle, 2h, read-out: MUSCLE): 0.151 ± 0.0203 %ID/g
- tissue uptake at 4 h ([4]; muscle, read-out: MUSCLE): 0.183 ± 0.0015 %ID/g
- tissue uptake at 2 h ([4]; uterus, 2h, read-out: UTERUS): 0.426 ± 0.0177 %ID/g
- tissue uptake at 4 h ([4]; uterus, read-out: UTERUS): 0.4 ± 0.0312 %ID/g
Molecule: CCN(CC)CCOc1ccc(C(=C(CCC[18F])c2ccccc2)c2ccccc2)cc1 [N,N-DIETHYL-[^18F]FLUOROMETHYLTAMOXIFEN]
- BLOOD [4, 10]: 0.048±0.0066 % OF INJECTED DOSE/GRAM OF TISSUE WEIGHT
- BONE [4, 10]: 0.576±0.1268 % OF INJECTED DOSE/GRAM OF TISSUE WEIGHT
- INTESTINE [4, 10]: 0.742±0.458 % OF INJECTED DOSE/GRAM OF TISSUE WEIGHT
- KIDNEY [4, 10]: 0.742±0.1451 % OF INJECTED DOSE/GRAM OF TISSUE WEIGHT
- LIVER [4, 10]: 4.451±1.1559 % OF INJECTED DOSE/GRAM OF TISSUE WEIGHT
- MUSCLE [4, 10]: 0.145±0.0446 % OF INJECTED DOSE/GRAM OF TISSUE WEIGHT
- UTERUS [4, 10]: 0.297±0.0356 % OF INJECTED DOSE/GRAM OF TISSUE WEIGHT
- BLOOD [4, 11]: 0.033±0.0109 % OF INJECTED DOSE/GRAM OF TISSUE WEIGHT
- BONE [4, 11]: 0.644±0.0656 % OF INJECTED DOSE/GRAM OF TISSUE WEIGHT
- INTESTINE [4, 11]: 0.504±0.1784 % OF INJECTED DOSE/GRAM OF TISSUE WEIGHT
- KIDNEY [4, 11]: 0.530±0.0752 % OF INJECTED DOSE/GRAM OF TISSUE WEIGHT
- LIVER [4, 11]: 3.849±0.4069 % OF INJECTED DOSE/GRAM OF TISSUE WEIGHT
- MUSCLE [4, 11]: 0.109±0.0218 % OF INJECTED DOSE/GRAM OF TISSUE WEIGHT
- UTERUS [4, 11]: 0.248±0.0535 % OF INJECTED DOSE/GRAM OF TISSUE WEIGHT

Molecule: Fluorotamoxifen [Compound VII (Trans)]
- IC50 (MCF7; comparative compounds IV and VII, average of three experiments, read-out: IC50 Dose): 11.8 µM
- RP (MCF7; comparative compounds IV and VII, relative potency, tamoxifen = 100): 93

- Ki (estrogen receptor [2]): 5 µM
- IC50 (estrogen receptor [2]; [6]): 1e-05 M
- IC50 (estrogen receptor [2]; [7]): 1e-05 M
- IC50 (estrogen receptor [2]; [8]): 1e-05 M
- RBA (estrogen receptor [1]): 3
- RBA* (estrogen receptor [1]): 300
- IC50 (MCF7; [9]): 16.7 µM
Molecule: CCN(CC)CCOc1ccc(/C(=C(\CCCO)c2ccccc2)c2ccccc2)cc1 [III (Cis), N,N-diethyl-hydroxymethyltamoxifen]
- RP (MCF7; [5]): 66

- IC50 (MCF7; [9]): 4.5 µM
- IC50 (MCF7; [12]): 4.5 µM
Molecule: CCN(CC)CCOc1ccc(/C(=C(\CCCF)c2ccccc2)c2ccccc2)cc1 [VI (Cis), N,N-diethyl-fluoromethyltamoxifen]
- RP (MCF7; [5]): 244

Molecule: CCN(CC)CCOc1ccc(/C(=C(\CCCI)c2ccccc2)c2ccccc2)cc1 [X (cis), N,N-diethyl-iodomethyltamoxifen]
- Ki (estrogen receptor [2]): 1.5 µM
- IC50 (estrogen receptor [2]; [6]): 3e-06 M
- IC50 (estrogen receptor [2]; [7]): 3e-06 M
- IC50 (estrogen receptor [2]; [8]): 3e-06 M
- RBA (estrogen receptor [1]): 10
- RBA* (estrogen receptor [1]): 1,000
- fold higher affinity for the estrogen receptor than native tamoxifen (estrogen receptor [1]): 10 fold
- Ki (estrogen receptor [1]; [^3H]estradiol 5 nM, 4°C): 1.5 µM
- IC50 (MCF7; [9]): 2.36 µM
- IC50 (MCF7; [12]): 2.4 µM
- RP (MCF7; [5]): 466

Molecule: CCN(CC)CCOc1ccc(/C(=C(/CCCBr)c2ccccc2)c2ccccc2)cc1 [Compound XI (trans), 1-[4-(2-Diethylaminoethoxy)phenyl]-1,2-diphenyl-5-bromo-1-entene]
- IC50 (estrogen receptor [2]; [7]): 2e-07 M
- IC50 (estrogen receptor [2]; [8]): 2e-07 M
- RBA (estrogen receptor [1]; IC50 ratio between tamoxifen and competitor, tamoxifen printed as 1): 150
- IC50 (MCF7; Homo sapiens, MCF7, 72 h, read-out: IC50 Dose (µM)): 4.9 µM
- RP (MCF7; [5]): 298
